This note sets out measurements from patent publication US8846947B2, “Benzimidazoles and related analogs as sirtuin modulators” (GlaxoSmithKline LLC, priority 2008, dated 2014).

The target in the assay is T1, SIRT1 (Homo sapiens, UniProt Q96EB6).
T1 sequence (Q96EB6 1-747): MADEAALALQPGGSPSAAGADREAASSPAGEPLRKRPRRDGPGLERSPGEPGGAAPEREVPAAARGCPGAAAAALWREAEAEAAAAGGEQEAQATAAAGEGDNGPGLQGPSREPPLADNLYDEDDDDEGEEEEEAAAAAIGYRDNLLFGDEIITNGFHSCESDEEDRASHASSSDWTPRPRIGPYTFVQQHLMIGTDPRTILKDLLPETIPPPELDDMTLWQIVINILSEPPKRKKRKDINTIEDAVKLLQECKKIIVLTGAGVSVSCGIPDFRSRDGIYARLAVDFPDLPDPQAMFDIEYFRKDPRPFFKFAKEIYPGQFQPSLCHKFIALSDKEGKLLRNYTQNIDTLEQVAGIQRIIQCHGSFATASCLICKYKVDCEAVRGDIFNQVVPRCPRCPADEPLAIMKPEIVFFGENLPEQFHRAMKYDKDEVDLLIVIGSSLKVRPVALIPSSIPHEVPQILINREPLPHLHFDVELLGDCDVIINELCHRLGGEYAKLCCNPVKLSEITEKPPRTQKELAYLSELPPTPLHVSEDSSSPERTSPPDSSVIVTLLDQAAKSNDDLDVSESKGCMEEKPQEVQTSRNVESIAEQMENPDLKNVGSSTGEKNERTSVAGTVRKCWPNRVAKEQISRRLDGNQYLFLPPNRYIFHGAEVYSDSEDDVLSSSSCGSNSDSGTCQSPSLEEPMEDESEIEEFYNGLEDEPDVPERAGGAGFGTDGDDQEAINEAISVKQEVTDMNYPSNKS
In words: Mass spectrometry based SIRT1 deacetylase activation assay (acetylated p53-derived peptide substrate). In kind it is biochemical.

Where [1] appears, read: 0.5 μM peptide substrate, 120 μM βNAD+, 10 nM SIRT1, 25 minutes at 25° C.
The mark [2] stands for this setting: 0.5 μM peptide substrate, 120 μM βNAD+, 10 nM SIRT1, 25 min at 25° C.
Setting [3] is: 0.5 μM peptide substrate, 120 μM βNAD+, 10 nM SIRT1, 25 min at 25° C., read-out: EC1.5.

Read-outs that look alike come from different tables or passages of the source.

With `Cc1cnc(NC(=O)c2cc(N3CCCC3)cc3[nH]c(-c4ccccc4C(F)F)nc23)s1` [Compound 790], under setting [1], the EC1.5 entry was “A (EC1.5<1.0 uM)” and the “Fold Act. (percent maximum fold activation)” value is on record as “A (Fold activation >200%)”.
In the same order, the values of `O=C(Nc1nc(CN2CCOCC2)cs1)c1cccc2[nH]c(-c3cccc(Cl)c3)nc12` [Compound 796] are “B (EC1.5 1-25 uM)” and “B (Fold Activation <200%)”.
`Cc1cnc(NC(=O)c2cccc3[nH]c(-c4ccc(OC5CCNCC5)cc4)nc23)s1` [Compound 537]: under setting [2], the “Fold Act. (percent maximum fold activation)” value is “A (Fold activation >200%)”. Also, the EC1.5 under setting [3] is less than 1000 nM.
For the molecule `O=C(Nc1cccc(OC2CCNC2)c1)c1cccc2[nH]c(-c3ccc(F)cc3C(F)(F)F)nc12` (stereo not shown) [Compound 660], under setting [1], the EC1.5 result was “A (EC1.5<1.0 uM)” and the “Fold Act. (percent maximum fold activation)” value is recorded as “A (Fold activation >200%)”.
Take `CN(C)CCNc1ccc(-c2nc3c(C(=O)Nc4nccs4)cccc3[nH]2)cn1` [Compound 259]: the EC1.5 entry is “B (EC1.5 1-25 uM)” and the “Fold Act. (percent maximum fold activation)” value is given as “A (Fold activation >200%)”.
For the molecule `O=C(NC1CCOC1=O)c1cccc2[nH]c(-c3ccnn3-c3ccccc3)nc12` (stereo not shown) [Compound 443], under setting [2], the “Fold Act. (percent maximum fold activation)” value was “B (Fold Activation <200%)”. Further, the EC1.5 under setting [3] was more than 25000 nM.
In the case of `O=C(Nc1cccnn1)c1cc(N2CCOCC2)cc2[nH]c(-c3cc(F)ccc3C(F)F)nc12` [Compound 770], under setting [1], the EC1.5 result was “A (EC1.5<1.0 uM)” and the “Fold Act. (percent maximum fold activation)” value is reported as “A (Fold activation >200%)”.
Turning to `Cc1cnc(NC(=O)c2cncc3[nH]c(-c4ccc(OC[C@@H](O)CO)cc4C(F)(F)F)nc23)s1` [Compound 759], under setting [1], the EC1.5 result is reported as “A (EC1.5<1.0 uM)” and the “Fold Act. (percent maximum fold activation)” value is reported as “A (Fold activation >200%)”.
For `O=C(Nc1cccc2[nH]c(-c3cccc(C(F)(F)F)c3)nc12)c1cccnc1` [Compound 334], the EC1.5 entry is given as “B (EC1.5 1-25 uM)” and the “Fold Act. (percent maximum fold activation)” value is given as “A (Fold activation >200%)”.
For the molecule `O=C(Nc1nc(CN2CCOCC2)cs1)c1cccc2[nH]c(-c3cccnc3)nc12` [Compound 795], under setting [1], the EC1.5 result is given as “C (EC1.5 >25 uM)” and the “Fold Act. (percent maximum fold activation)” value is “B (Fold Activation <200%)”.
In the same order, the values of `O=C(Nc1cccc(OC[C@H](O)CO)c1)c1cccc2[nH]c(-c3ccc(F)cc3C(F)F)nc12` [Compound 717] are “A (EC1.5<1.0 uM)” and “A (Fold activation >200%)”.
As for `O=C(Nc1nccs1)c1cccc2[nH]c(-c3ccc(F)cc3OCCN3CCOCC3)nc12` [Compound 503], the “Fold Act. (percent maximum fold activation)” value under setting [2] is on record as “B (Fold Activation <200%)”. In addition, under setting [3], the EC1.5 fell in the range of 1000 to 25000 nM.
In the same order, the values of `O=C(Nc1nccs1)c1cccc2[nH]c(-c3ccc(N4CCOCC4)cc3C(F)F)nc12` [Compound 551, 2-(2-(difluoromethyl)-4-morpholinophenyl)-N-(thiazol-2-yl)-1H-benzo[d]imidazole-4-carboxamide] are “A (Fold activation >200%)” and less than 1000 nM.
Regarding `O=C(Nc1nccs1)c1cccc2[nH]c(-c3cccc(CN4CCCC4)c3)nc12` [Compound 351], the EC1.5 result was “B (EC1.5 1-25 uM)” and the “Fold Act. (percent maximum fold activation)” value was “A (Fold activation >200%)”.
For the molecule `O=C(Nc1nccs1)c1cccc2[nH]c(-c3cc(Cl)ccc3OCCN3CCOCC3)nc12` [Compound 501], the “Fold Act. (percent maximum fold activation)” value under setting [2] was “A (Fold activation >200%)”. The EC1.5 under setting [3] is less than 1000 nM.
For `Cc1nc(-c2ccccc2)sc1-c1nc2c(C(=O)Nc3nccs3)cccc2[nH]1` [Compound 408], the “Fold Act. (percent maximum fold activation)” value under setting [2] is given as “A (Fold activation >200%)”. For the same molecule, under setting [3], the EC1.5 is less than 1000 nM.
As for `O=C(Nc1ccc(OC[C@@H](O)CO)cc1)c1cccc2[nH]c(-c3cccc(N4CCCC4)c3)nc12` [Compound 788], under setting [1], the EC1.5 entry is reported as “A (EC1.5<1.0 uM)” and the “Fold Act. (percent maximum fold activation)” value is “A (Fold activation >200%)”.
In the case of `Cc1cc(NC(=O)c2cccc3[nH]c(-c4cccc(C(F)(F)F)c4)nc23)n(C)n1` [Compound 278], the EC1.5 entry is given as “B (EC1.5 1-25 uM)” and the “Fold Act. (percent maximum fold activation)” value is reported as “A (Fold activation >200%)”.
For `Cc1cnc(NC(=O)c2cccc3[nH]c(-c4cc(F)ccc4C(F)F)nc23)s1` [Compound 512], the “Fold Act. (percent maximum fold activation)” value under setting [2] is “A (Fold activation >200%)”. In addition, the EC1.5 under setting [3] was less than 1000 nM.
With `O=C(NC1CCNCC1)c1cccc2[nH]c(-c3ccccc3C(F)(F)F)nc12` [Compound 431], the “Fold Act. (percent maximum fold activation)” value under setting [2] is “B (Fold Activation <200%)”. Further, the EC1.5 under setting [3] is more than 25000 nM.
Turning to `O=C(Nc1nccs1)c1cccc2[nH]c(-c3ccc(C(F)(F)F)cc3)nc12` [Compound 209], the EC1.5 result was “C (EC1.5 >25 uM)” and the “Fold Act. (percent maximum fold activation)” value was “B (Fold Activation <200%)”.
The like results for `Cc1cnc(NC(=O)c2cccc3[nH]c(-c4ccccc4C(F)(F)F)nc23)s1` [Compound 343] were, in that order, “A (EC1.5<1.0 uM)” and “A (Fold activation >200%)”.
In the same order, the values of `O=C(Nc1nccs1)c1cccc2[nH]c(-c3c(F)cccc3F)nc12` [Compound 265] are “B (EC1.5 1-25 uM)” and “A (Fold activation >200%)”.
On to `O=C(Nc1nccs1)c1cccc2[nH]c(-c3cnccc3C(F)(F)F)nc12` [Compound 702], for which, under setting [1], the EC1.5 result is given as “A (EC1.5<1.0 uM)” and the “Fold Act. (percent maximum fold activation)” value is “A (Fold activation >200%)”.
Regarding `Cc1cnc(NC(=O)c2cccc3[nH]c(-c4ccc(OC[C@H](O)CO)cc4C(F)(F)F)nc23)s1` [Compound 743], under setting [1], the EC1.5 entry is recorded as “A (EC1.5<1.0 uM)” and the “Fold Act. (percent maximum fold activation)” value is recorded as “A (Fold activation >200%)”.
Take `CCOC(=O)c1csc(NC(=O)c2cccc3[nH]c(-c4cccc(C(F)(F)F)c4)nc23)n1` [Compound 308]: the EC1.5 entry is given as “B (EC1.5 1-25 uM)” and the “Fold Act. (percent maximum fold activation)” value is “A (Fold activation >200%)”.
On to `O=C(Nc1cnccn1)c1cccc2[nH]c(-c3cccc(OC(F)(F)F)c3)nc12` [Compound 205], for which the EC1.5 result is on record as “A (EC1.5<1.0 uM)” and the “Fold Act. (percent maximum fold activation)” value was “A (Fold activation >200%)”.
The like results for `O=C(Nc1cccc2[nH]c(-c3cc(F)ccc3C(F)(F)F)nc12)c1cnccn1` [Compound 387] were, in that order, “B (EC1.5 1-25 uM)” and “A (Fold activation >200%)”.
In the same order, the values of `O=C(Nc1cccc2[nH]c(-c3cccc(N4CCOCC4)c3)nc12)c1ccccn1` [Compound 367] are “B (EC1.5 1-25 uM)” and “A (Fold activation >200%)”.
As for `Cc1cnc(NC(=O)c2cccc3[nH]c(-c4sc(N5CCOCC5)nc4C)nc23)s1` [Compound 601], under setting [1], the EC1.5 result is given as “A (EC1.5<1.0 uM)” and the “Fold Act. (percent maximum fold activation)” value is on record as “A (Fold activation >200%)”.
On to `O=C(Nc1cccc(OC[C@H](O)CO)c1)c1cccc2[nH]c(-c3cc(F)ccc3F)nc12` [Compound 785], for which, under setting [1], the EC1.5 result is given as “A (EC1.5<1.0 uM)” and the “Fold Act. (percent maximum fold activation)” value is listed as “A (Fold activation >200%)”.
The like results for `O=C(Nc1nccs1)c1cccc2[nH]c(-c3cc(N4CC[C@@H](F)C4)ccc3C(F)(F)F)nc12` [Compound 667] were, in that order, “B (EC1.5 1-25 uM)” and “A (Fold activation >200%)”.
The like results for `O=C(Nc1cccc(OC[C@H](O)CO)c1)c1cncc2[nH]c(-c3ccccc3C(F)(F)F)nc12` [Compound 748] were, in that order, “A (EC1.5<1.0 uM)” and “A (Fold activation >200%)”.
Take `O=C(Nc1nccs1)c1cccc2[nH]c(-c3ccccc3OCCN3CC[C@H](F)C3)nc12` [Compound 509]: the “Fold Act. (percent maximum fold activation)” value under setting [2] is on record as “B (Fold Activation <200%)”. Further, the EC1.5 under setting [3] is less than 1000 nM.
In the case of `O=C(NC1CCOC1=O)c1cccc2[nH]c(-c3ccccc3C(F)(F)F)nc12` (stereo not shown) [Compound 353], the EC1.5 entry is reported as “C (EC1.5 >25 uM)” and the “Fold Act. (percent maximum fold activation)” value was “B (Fold Activation <200%)”.
Turning to `O=C(Nc1nccs1)c1cccc2[nH]c(-c3ccccc3OCCN3CCC(F)(F)C3)nc12` [Compound 614], under setting [1], the EC1.5 entry is reported as “C (EC1.5 >25 uM)” and the “Fold Act. (percent maximum fold activation)” value was “B (Fold Activation <200%)”.
On to `O=C(N[C@H]1CCNC1)c1cccc2[nH]c(-c3cccc(C(F)(F)F)c3)nc12` [Compound 301], for which the EC1.5 entry is “C (EC1.5 >25 uM)” and the “Fold Act. (percent maximum fold activation)” value is reported as “B (Fold Activation <200%)”.
With `O=C(Nc1cccnc1)c1cc(N2CCOCC2)cc2[nH]c(-c3ccc(Cl)cc3C(F)(F)F)nc12` [Compound 642], under setting [1], the EC1.5 result was “A (EC1.5<1.0 uM)” and the “Fold Act. (percent maximum fold activation)” value is “A (Fold activation >200%)”.
